# Assay results from ChEMBL document CHEMBL4680203, “Cladosins L-O, new hybrid polyketides from the endophytic fungus Cladosporium sphaerospermum WBS017” (Eur J Med Chem, 2020).
# Experiments:
# Saccharomyces cerevisiae [1] = experiment: Antifungal activity against Saccharomyces cerevisiae ESM356-1 assessed as diameter of zone inhibition at 50 ug by Kirby-Bauer disk diffusion method; type: functional; conditions: read-out: DIZ
# Ustilago maydis [2] = experiment: Antifungal activity against Ustilago maydis AB33 assessed as diameter of zone inhibition at 50 ug by Kirby-Bauer disk diffusion method; type: functional; conditions: Mycosarcoma maydis, read-out: DIZ
# Acinetobacter baumannii = experiment: […] activity against Acinetobacter baumannii BAA1605 assessed as reduction in microbial growth by CLSI based broth microdilution method; type: functional
# Staphylococcus aureus [3] = experiment: Antibacterial activity against Staphylococcus aureus ATCC 29213 assessed as reduction in microbial growth by CLSI based broth microdilution method; type: functional
# [4] = system: Mycobacterium tuberculosis; experiment: Antitubercular activity against Mycobacterium tuberculosis H37Rv assessed as reduction in microbial growth by CLSI based broth microdilution method; type: functional
# Pseudomonas aeruginosa = experiment: Antibacterial activity against Pseudomonas aeruginosa 27853 assessed as reduction in microbial growth by CLSI based broth microdilution method; type: functional
# L5178Y [5] = experiment: Cytotoxicity against mouse L5178Y cells assessed as cell viability at 10 ug/ml after 24 hrs by MTT assay relative to control; type: functional; conditions: read-out: Activity
# L5178Y [6] = experiment: Cytotoxicity against mouse L5178Y cells assessed as reduction in cell viability after 24 hrs by MTT assay; type: functional, cell-based
# Saccharomyces cerevisiae [7] = experiment: Antifungal activity against Saccharomyces cerevisiae ESM356-1 assessed as diameter of zone inhibition at 100 ug by Kirby-Bauer disk diffusion method; type: functional, organism-based; conditions: dose 100.0 µg
# Ustilago maydis [8] = experiment: Antifungal activity against Ustilago maydis AB33 assessed as diameter of zone inhibition at 100 ug by Kirby-Bauer disk diffusion method; type: functional; conditions: Mycosarcoma maydis
# Staphylococcus aureus [9] = experiment: Antibacterial activity against Staphylococcus aureus ATCC 700699 assessed as reduction in microbial growth by CLSI based broth microdilution method; type: functional
# Enterococcus faecalis = experiment: […] activity against Enterococcus faecalis ATCC 29212 assessed as reduction in microbial growth by CLSI based broth microdilution method; type: functional
Molecule,MIC (Acinetobacter baumannii) [µM],MIC (Staphylococcus aureus [3]) [µM],MIC [4] [µM],MIC (Pseudomonas aeruginosa) [µM],viability at 10 µg/mL (L5178Y [5]) [%],further results
CN[C@H]1C[C@@H](N)[C@H](O)[C@@H](O[C@@H]2O[C@H](CO)[C@H](O)[C@@H]3O[C@@]4(O[C@H]23)O[C@H]([C@H](N)CO)[C@H](O)[C@H](O)[C@H]4O)[C@@H]1O,,,,,,zone of inhibition at 50 µg/disc (Saccharomyces cerevisiae [1]): 8.7 mm; zone of inhibition at 50 µg/disc (Ustilago maydis [2]): 8.3 mm
CC(C)=C1NC(=O)C2=C1O[C@H](C[C@H](C)O)CC2=O,> 100,> 100,> 100,> 100,100,
CC(C)=C1NC(=O)C(=C(N)/C=C/CC(C)O)C1=O (centres undefined),> 100,> 100,100,> 100,32.8,
C/C=C1\NC(=O)[C@H](Cc2ccccc2)NC(=O)[C@H](C(C)C)NC(=O)[C@@H]([C@@H](C)CC)NC(=O)[C@@H](NC(=O)[C@H](NC(=O)[C@H](CCCN)NC(=O)[C@H]2CCCN2C(=O)[C@@H](NC(=O)C(NC(=O)[C@@H](NC(=O)[C@@H](NC(=O)CCCC(C)C)C(C)C)[C@@H](C)O)C(C)C)C(C)C)[C@@H](C)CC)[C@@H](C)OC(=O)[C@H](C(C)C)NC1=O (some centres undefined),,,,,0,EC50 (L5178Y [6]): 4.3 µM
CC(C)=C1NC(=O)C(=C(N)CCCC(C)O)C1=O (mixture of isomers),> 100,> 100,100,> 100,50.9,
CC(C)=C1NC(=O)C(=C(N)CC(O)C[C@H](C)O)C1=O (some centres undefined),> 100,> 100,100,> 100,53.1,
CC(C)=C1NC(=O)C(=C(N)CC(O)C[C@@H](C)O)C1=O (some centres undefined),> 100,> 100,100,> 100,82.2,
CC(C)=C1NC(=O)C2=C1O[C@@H](C[C@H](C)O)CC2=O,> 100,> 100,> 100,> 100,,
NYSTATIN,,,,,,inhibition zone (IZ) (Saccharomyces cerevisiae [7]): 7.8 mm; inhibition zone (IZ) (Ustilago maydis [8]; dose 100.0 µg): 32.7 mm
CC(C)=C1NC(=O)C(=Cc2ccc(O)cc2)C1=O (mixture of isomers),> 100,50,> 100,> 100,18.2,MIC (Staphylococcus aureus [9]): 25 µM; MIC (Enterococcus faecalis): > 100 µM
CC(C)=C1NC(=O)C(=C2C=CCC(C)O2)C1=O (centres undefined),> 100,> 100,> 100,> 100,0,EC50 (L5178Y [6]): 3.7 µM; zone of inhibition at 100 µg/disc (Ustilago maydis [8]; read-out: DIZ): 9.7 mm
